pIC50: −log10 of the molar value. Entries after “also recorded” stand apart in the source; their conditions may differ. Like-named read-outs stand apart in the source and are kept apart here.
What was measured:
tyrosinase [1] = conditions: previously reported, cited from earlier work
tyrosinase [2] = assay: UV/VIS spectra of tyrosinase with L-Dopa and inhibitor; assay type: biochemical; conditions: 475 nm, L-Dopa + tyrosinase, various concentrations of inhibitor
Protocol: UV spectra of compound 6a, tyrosinase and L-Dopa were analyzed separately. […] However, when L-Dopa was added to tyrosinase without an inhibitor, the highest absorbance was observed, confirming the generation of dopachrome.

tyrosinase [3] = assay: Enzyme kinetic studies (Lineweaver-Burk, L-Dopa substrate); assay type: biochemical
Description: The Lineweaver–Burk reciprocal plot was provided by plotting 1/V against 1/[S] at variable concentrations of the L-Dopa.

[4] = target: tyrosinase (EC 1.14.18.1) (Agaricus bisporus, UniProt C7FF04); assay: Tyrosinase inhibitory assay (L-Dopa oxidation); assay type: biochemical; conditions: for pIC50: tyrosinase, L-Dopa substrate, mean of three independent experiments
mTYR = tested on: mTYR; set-up: method as in PMID 29427586; conditions: previously reported; cited from earlier work
hTYR = tested on: hTYR; set-up: method as in PMID 29427586; conditions: previously reported; cited from earlier work

tyrosinase (EC 1.14.18.1), sequence (C7FF04 1-392): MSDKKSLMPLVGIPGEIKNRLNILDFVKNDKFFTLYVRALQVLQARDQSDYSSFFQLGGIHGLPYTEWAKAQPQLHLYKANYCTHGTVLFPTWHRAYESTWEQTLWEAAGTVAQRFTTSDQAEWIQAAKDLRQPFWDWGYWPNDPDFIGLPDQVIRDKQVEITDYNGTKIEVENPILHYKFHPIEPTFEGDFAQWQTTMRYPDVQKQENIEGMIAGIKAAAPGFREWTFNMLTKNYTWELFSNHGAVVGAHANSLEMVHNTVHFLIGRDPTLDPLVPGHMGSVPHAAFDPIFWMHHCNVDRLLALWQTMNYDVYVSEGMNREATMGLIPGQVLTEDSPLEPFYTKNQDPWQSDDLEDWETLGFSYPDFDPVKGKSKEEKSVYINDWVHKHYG

Row | Compound | melting point | pIC50 [4] | pIC50 (tyrosinase [1]) | also measured
1 | CCCCC(=O)NC(=S)Nc1ccc(OC)cc1 [B] |  |  | 5.81 | pIC50 (tyrosinase [1]; listed as compound B): 5.27
2 | Cn1cc[nH]c1=S [C, methimazole] |  |  | 3.94 | 
3 | CCOC(=O)C1=C(C)N=C2SC=C(C)N2C1c1ccccc1 (centres unmarked) [Compound 6a, Ethyl 3,7-dimethyl-5-phenyl-5H-thiazolo[3,2-a]pyrimidine-6-carboxylate] | 110 to 111 °C | 4.55 |  | absorbance intensity (dopachrome formation) (tyrosinase [2]): decreased dose-dependently; type of inhibition (tyrosinase [3]; Lineweaver-Burk plot, L-Dopa substrate): noncompetitive inhibitor; also recorded: noncompetitive mode of inhibition; Km (tyrosinase [3]; inhibitor concentration 5 µM): 690 µM; Vmax (tyrosinase [3]; inhibitor concentration 5 µM): 22.22 mM/min; Km (tyrosinase [3]; inhibitor concentration 10 µM): 680 µM; Vmax (tyrosinase [3]; inhibitor concentration 10 µM): 12.66 mM/min; Km (tyrosinase [3]; inhibitor concentration 25 µM): 650 µM; Vmax (tyrosinase [3]; inhibitor concentration 25 µM): 10.35 mM/min; Km (tyrosinase [3]; inhibitor concentration 50 µM): 690 µM; Vmax (tyrosinase [3]; inhibitor concentration 50 µM): 8.40 mM/min; Km (tyrosinase [3]; inhibitor concentration 100 µM): 660 µM; Vmax (tyrosinase [3]; inhibitor concentration 100 µM): 5.15 mM/min
4 | CCOC(=O)C1=C(C)N=C2SC=C(C)N2C1c1ccccc1F (centres unmarked) [Compound 6b, Ethyl 5-(2-fluorophenyl)-3,7-dimethyl-5H-thiazolo[3,2-a]pyrimidine-6-carboxylate] | 111 to 112 °C | 4.39 |  | 
5 | CCOC(=O)C1=C(C)N=C2SC=C(C)N2C1c1cccc(F)c1 (centres unmarked) [Compound 6c, Ethyl 5-(3-fluorophenyl)-3,7-dimethyl-5H-thiazolo[3,2-a]pyrimidine-6-carboxylate] | 113 to 114 °C | 4.25 |  | 
6 | CCOC(=O)C1=C(C)N=C2SC=C(C)N2C1c1ccccc1Cl (centres unmarked) [Compound 6d, Ethyl 5-(2-chlorophenyl)-3,7-dimethyl-5H-thiazolo[3,2-a]pyrimidine-6-carboxylate] | 114 to 115 °C | 4.47 |  | 
7 | CCOC(=O)C1=C(C)N=C2SC=C(C)N2C1c1ccc(Cl)cc1 (centres unmarked) [Compound 6e, Ethyl 5-(4-chlorophenyl)-3,7-dimethyl-5H-thiazolo[3,2-a]pyrimidine-6-carboxylate] | 113 to 114 °C | 4.42 |  | 
8 | Nc1nc(-c2ccc(O)cc2O)cs1 [Compound D] |  |  | 4.29 | 
9 | CC(C)C(=O)Nc1nc(-c2ccc(O)cc2O)cs1 [Compound E] |  |  |  | pIC50 (mTYR): 3.97; pIC50 (hTYR): 5.96
10 | CCOC(=O)C1=C(N)Oc2c(ccc3ccccc23)C1c1ccc(N(C)C)cc1 (centres unmarked) [F] |  |  | 4.47 | 
11 | NC(=S)N/N=C/c1cc(COC(=O)c2ccccc2)cs1 [G] |  |  | 7.17 | 

The next lines start with results.

Row | melting point | pIC50 [4] | Compound | pIC50 (tyrosinase [1]) | also measured
12 | 112 to 113 °C | 4.07 | CCOC(=O)C1=C(C)N=C2SC=C(C)N2C1c1cccc(Br)c1 (centres unmarked) [Compound 6f, Ethyl 5-(3-bromophenyl)-3,7-dimethyl-5H-thiazolo[3,2-a]pyrimidine-6-carboxylate] |  | 
13 | 151 to 152 °C | 4.35 | CCOC(=O)C1=C(C)N=C2SC=C(C)N2C1c1cccc([N+](=O)[O-])c1 (centres unmarked) [Compound 6g, Ethyl 3,7-dimethyl-5-(3-nitrophenyl)-5H-thiazolo[3,2-a]pyrimidine-6-carboxylate] |  | 
14 | 114 to 115 °C | < 3.60 | CCOC(=O)C1=C(C)N=C2SC=C(C)N2C1c1ccc(C)cc1 (centres unmarked) [Compound 6h, Ethyl 3,7-dimethyl-5-(p-tolyl)-5H-thiazolo[3,2-a]pyrimidine-6-carboxylate] |  | tyrosinase inhibitory activity (in words) ([4]; SAR discussion): complete loss of activity
15 | 111 to 112 °C | 4.45 | CCOC(=O)C1=C(C)N=C2SC=C(C)N2C1c1ccc(OC)cc1 (centres unmarked) [Compound 6i, Ethyl 5-(4-methoxyphenyl)-3,7-dimethyl-5H-thiazolo[3,2-a]pyrimidine-6-carboxylate] |  | 
16 | 121 to 122 °C | 4.39 | CCOC(=O)C1=C(C)N=C2SC=C(C)N2C1c1ccc(O)c(OC)c1 (centres unmarked) [Compound 6j, Ethyl 5-(4-hydroxy-3-methoxyphenyl)-3,7-dimethyl-5H-thiazolo[3,2-a]pyrimidine-6-carboxylate] |  | 

From PMC10658973, “Thiazolopyrimidine derivatives as novel class of small molecule tyrosinase inhibitor” (BMC Chemistry, 2023)
